Assay results: PubChem BioAssay (NCI)
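Where inhibition never reached the appropriate level, the endpoint shown equals the highest concentration tested. Otherwise, values were interpolated linearly from a five-concentration, 48-hour dose response in 96-well plates. TGI: total growth inhibition.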

How the values were obtained:
Assay in all cases: growth of human tumour cells (NCI), 48 h
[1] = system: COLO 205 colon
[2] = system: DLD-1 colon
[3] = system: U251 CNS
[4] = system: 786-0 renal
[5] = system: NCI-H460 lung
[6] = system: UO-31 renal
[7] = system: HCT-116 colon
[8] = system: RPMI-8226 leukemia
[9] = system: LOX IMVI melanoma
[10] = system: HL-60(TB) leukemia
[11] = system: TK-10 renal
[12] = system: M19-MEL melanoma
[13] = system: SK-MEL-5 melanoma
[14] = system: OVCAR-3 ovarian
[15] = system: A549 NSCLC
[16] = system: K-562 leukemia
[17] = system: SF-539 CNS
[18] = system: RXF 393 renal
[19] = system: SK-MEL-28 melanoma
[20] = system: HT29 colon
[21] = system: SF-295 CNS
[22] = system: NCI-H23 lung
[23] = system: EKVX NSCLC
[24] = system: ACHN renal
[25] = system: HOP-92 NSCLC
[26] = system: SK-MEL-2 melanoma
[27] = system: RXF-631 renal
[28] = system: A498 renal
[29] = system: HCC-2998 colon
[30] = system: SK-OV-3 ovarian
[31] = system: MOLT-4 leukemia
[32] = system: HOP-18 NSCLC
[33] = system: OVCAR-8 ovarian
[34] = system: UACC-62 melanoma
[35] = system: SR leukemia
[36] = system: HCT-15 colon
[37] = system: SN12C renal
[38] = system: DMS 114 small cell lung
[39] = system: SNB-75 CNS
[40] = system: M14 melanoma
[41] = system: SW-620 colon
[42] = system: KM12 colon
[43] = system: SNB-19 CNS
[44] = system: OVCAR-5 ovarian
[45] = system: SF-268 CNS
[46] = system: UACC-257 melanoma
[47] = system: NCI-H522 lung
[48] = system: XF 498 CNS
[49] = system: IGROV1 ovarian
[50] = system: CCRF-CEM leukemia
[51] = system: HOP-62 NSCLC
[52] = system: KM20L2 colon
[53] = system: MALME-3M melanoma
[54] = system: NCI-H226 lung
[55] = system: LXFL 529 NSCLC

Measured: TGI

Cc1cccc2c1NC(c1c(C)[nH]c3ccccc13)C2 (stereo not given)
> 100 µM: [1] | [2] | [3] | [4] | [5] | [6] | [7] | [8] | [9] | [10] | [11] | [12] | [13] | [14] | [15] | [16] | [17] | [18] | [19] | [20] | [21] | [22] | [23] | [24] | [26] | [27] | [28] | [29] | [30] | [31] | [32] | [33] | [34] | [35] | [36] | [37] | [38] | [39] | [40] | [41] | [42] | [43] | [44] | [45] | [46] | [47] | [48] | [49] | [50] | [51] | [52] | [53] | [54] | [55]
17.2 µM: [25]
